Measured values from patent US7214696B2, “Compositions and methods for stabilizing transthyretin and inhibiting transthyretin misfolding” (The Scripps Research Institute, priority 2002, dated 2007).
Read-outs that look alike come from different tables or passages of the source. Values belong to the compound of their own block, whether it stands above or below them.

Tests used:
[1] = target: T1, TTR in human blood plasma (Homo sapiens, UniProt P02766); assay: Immunoprecipitation/HPLC binding stoichiometry of PCBs and OH-PCBs in plasma, Example 4; set-up: from tissue; host or cells: human blood plasma from healthy volunteers; conditions: OH-PCB 10.8 μM in human blood plasma; post-wash lower limit
Description: After washing, the PCB or OH-PCB binding stoichiometry to TTR (≈5 μM) was evaluated by reverse phase HPLC.
A 2 mL eppendorf tube was filled with 1.5 mL of human blood plasma and 7.5 μL of a 2.16 mM DMSO solution of the PCB under evaluation. This solution was incubated at 37° C. for 24 h. A 1:1 resin/TSA slurry (187 μL) of quenched Sepharose was added to the solution and gently rocked at 4° C. for 1 h. The solution was centrifuged (16,000×g) and the supernatant divided into 3 aliquots of 400 μL each. These were each added to 200 μL of a 1:1 resin/TSA slurry of the anti-transthyretin antibody-conjugated Sepharose and slowly rocked at 4° C. for 20 min. The samples were centrifuged (16,000×g) and the supernatant removed. The resin was washed with 1 mL TSA/0.05% Saponin (Acros) (3×10 min) at 4° C., and additionally with 1 mL TSA (2×10 min) at 4° C. […]
The supernatant elution samples from the TTR antibody beads (145 μL) were loaded onto a Waters 71P autosampler. […] Detection was accomplished at 280 nm with a Waters 486 tunable absorbance detector, and the peaks were integrated to give the area of both TTR and the small molecule. In order to determine the quantity of each species, known amounts of tetrameric TTR or PCB were injected onto the HPLC. […] The ratio of small molecule to protein was calculated to yield the stoichiometry of small molecule bound to TTR in plasma.

[2] = target: wt transthyretin tetramer (Homo sapiens, UniProt P02766); assay: TTR tetramer dissociation in 6 M urea, Example 5; conditions: TTR 1.8 μM, inhibitor 3.6 μM
TTR in whole blood = target: T2, TTR in whole blood (Homo sapiens, UniProt P02766); assay: Binding stoichiometry of OH-PCBs in whole blood, Example 4
T2 construct: Whole blood was drawn from healthy volunteers; from tissue; host or cells: human whole blood from healthy volunteers
Description: Up to two PCBs can bind to the two identical thyroid hormone binding sites in a TTR tetramer. […] Several of the hydroxylated PCBs (e.g., 16 and 22) approach a binding stoichiometry of 2.

TTR [3] = target: T3, TTR (Homo sapiens, UniProt P02766); assay: Rate of acid-mediated (pH 4.4) amyloid fibril formation, Example 3; assay type: biochemical; set-up: made in house; host or cells: Escherichia coli BL21/DE3 Epicurian gold, pmmHα plasmid; conditions: diflunisal 5, 10, 20 and 60 μM
Description: (§1) Fibril formation assay was carried out as follows. A recombinant TTR stock solution (7.2 μM) was diluted 1:1 with 100 mM acidification buffer. Citrate buffer was used when a final pH of ≦3.8 was desired; acetate buffer was employed when the pH range under evaluation was 4.2–6.0, and phosphate buffer was utilized for evaluating amyloidogenesis at pH 6.5. Samples were incubated at 37° C. for 72 h without stirring after acidification. The extent of fibril formation was probed by turbidity measurements at […].

[4] = Serum diflunisal levels in healthy volunteers (HPLC), Example 3; assay type: in vivo; conditions: both sexes, human, oral
Description: (§2) Thirty healthy volunteers (25 male, 5 female) were enrolled after informed consent was given. The subjects ranged from 23 to 53 years of age (mean age, 37.6±8.8) with a mean body weight of 78.0±12.1 kg. […] This study design was approved by the Human Subjects Committee of Scripps Clinic, Scripps Green Hospital, The Scripps Research Institute, and The Scripps General Clinical Research Center.
Serum diflunisal levels were measured. One hundred μL of serum was added to 900 μL of acetonitrile to precipitate the proteins. Following centrifugation, 100 μL of supernatant was added to 900 μL of 100 mM aqueous triethylamine, pH 11.5. After filtration, 100 μL of each sample was injected on a Keystone 3-cm C18 reverse-phase column using a 40–100% gradient of solution B over 10 min (solution A: 94.8% water/5% acetonitrile/0.2% trifluoroacetic acid; solution B: 94.8% acetonitrile/5% water/0.2% trifluoroacetic acid), controlled by a Waters 600E multisolvent delivery system.

TTR [5] = target: T3, TTR; assay: Rate of urea-mediated (6.5 M) TTR tetramer dissociation by CD, Example 3; assay type: biochemical; set-up: made in house; host or cells: Escherichia coli BL21/DE3 Epicurian gold, pmmHα plasmid; conditions: 6.5 M urea; diflunisal 5, 10, 20 and 60 μM
Description: Rate of TTR tetramer dissociation was measured by circular dichroism spectroscopy. The evaluation of tetramer dissociation rates was carried out using recombinant TTR (3.6 μM) samples in 6.5 M urea, a concentration in the post-transition region for tertiary structural change (Hammarstrom et al., Proc Natl Acad Sci USA 2002; 99: 16427–32). The far-UV CD spectra of TTR (210–220 nm) as a function of time was measured to evaluate the slow tetramer dissociation rate by linking it to fast tertiary structural changes.

V122I TTR = target: T4, V122I TTR (Homo sapiens, UniProt P02766, V142I); assay: Acid-mediated amyloidogenesis of TTR variant V122I, Example 3; assay type: biochemical
T4 construct: made in house; host or cells: Escherichia coli BL21/DE3 Epicurian gold, pmmHα plasmid
Description: (§3) Recombinant WT TTR and variants were expressed in BL21/DE3 Epicurian gold Escherichia coli (Stratagene) transformed with the pmmHα plasmid containing the TTR and ampicillin-resistance genes. Expression and purification were performed as described previously (Lashuel et al., Biochemistry 1999; 38: 13560–73).
as §1
(§4) More than 80 TTR mutations predispose individuals to hereditary amyloidosis by sequence dependent alterations of the denaturation energy landscape.

WT TTR [6] = target: T5, WT TTR (Homo sapiens, UniProt P02766); assay: Stagnant acid-mediated fibril formation assay (turbidity, pH 4.4, 72 h), Example 2; conditions: 3.6 TM TTR, 37° C.
Description: Each compound was subjected to a stagnant fibril formation assay. […] The mixture was vortexed and incubated for 30 min (25° C.), at which time the pH was lowered to 4.4 with 500 TL of 200 mM acetate, 100 mM KCl and 1 mM EDTA (pH 4.2). The final 1 mL solution was vortexed and incubated for 72 h at 37° C. without agitation. After 72 h, the cuvettes were vortexed to suspend any fibrils present, and the turbidity of the suspension was measured at 350 and 400 nm using a UV-vis spectrometer. […] All assays were performed in triplicate and all compounds were assayed using wild-type TTR.
After incubation of each mixture for 72 h (37° C.), the turbidity was measured at 350 and 400 nm using a UV-vis spectrometer. All amyloid fibril formation data was normalized to WT TTR amyloidogenesis in the absence of inhibitor, assigned to be 100% fibril formation.

[7] = Serum chemistry and side effects in healthy volunteers given diflunisal, Example 3; assay type: in vivo, human
Description: as §2

V30M TTR = target: T6, V30M TTR (Homo sapiens, UniProt P02766, V50M); assay: Acid-mediated amyloidogenesis of TTR variant V30M, Example 3; assay type: biochemical
T6 construct: made in house; host or cells: Escherichia coli BL21/DE3 Epicurian gold, pmmHα plasmid
Description: as §3, §1, §4

serum TTR = target: T7, serum TTR (Homo sapiens, UniProt P02766); assay: Serum TTR tetramer stability against urea or acid denaturation (glutaraldehyde cross-linking, immunoblot), Example 3; assay type: in vivo; conditions: whole serum of dosed subjects, urea (0–9 M) or acid (pH 3.8–5.4)
T7 construct: from tissue; host or cells: serum of healthy human volunteers dosed orally with diflunisal
Description: Serum TTR tetramer stability towards urea denaturation was evaluated. Ten μL samples of serum were incubated (25° C.) in 90 μL of various concentrations of urea in 50 mM phosphate buffer (pH 7.0; 100 mM KCl, 1 mM EDTA, 1 mM DTT). Urea solutions were checked by refractive index to verify the concentrations prepared by weight. Glutaraldehyde cross-linking of the protein was performed by adding 10 μL of glutaraldehyde (25%). The cross-linking reaction was allowed to proceed for 4 min before it was quenched by the addition of 10 μL of NaBH4 (7% in 0.1 M NaOH). The samples were mixed with 120 μL of SDS reducing gel loading cocktail (final SDS concentration=2.5%) and boiled for 5 min.
Serum TTR tetramer stability against acid denaturation was evaluated. Ten μL samples of serum were incubated (37° C.) in 90 μL of 100 mM acidification buffer. Citrate buffer was used when a final pH of ≦3.8 was desired; acetate buffer was employed when the pH range under evaluation was 4.2–5.4. After cross-linking, samples were analyzed by SDS-PAGE and immunoblotting as described above.
Whole serum from the subjects was subjected to denaturation either by adding urea (0–9 M) or by adding acid (pH 3.8–5.4). […] Immunoblotting enables quantitative comparisons of the amount of folded TTR.

[8] = cited from earlier work
TTR in human serum = TTR in human serum (Homo sapiens, UniProt P02766); conditions: diflunisal 100 μM in serum
Description: A 1:1 gel/10 mM Tris.HCl, pH 8.0/140 mM NaCl/0.025% NaN3(TSA) slurry (62.5 μL) of Sepharose was added to 500 μL of serum and incubated at 4° C. for 1 h. Following centrifugation, 400 μL of supernatant was added to 200 μL of a 1:1 gel/TSA slurry of the anti-TTR antibody-conjugated Sepharose and slowly rocked at 4° C. for 20 min. After centrifugation, the gel was washed with 1 mL of TSA/0.05% saponin (Fisher Scientific) (twice, 10 min each), and additionally with 1 mL of TSA (once, 10 min) at 4° C. […] After gentle rocking at 4° C. for 30 min, the sample was centrifuged and 145 μL of the supernatant was removed.

[9] = target: T1, TTR in human blood plasma; assay type: binding; set-up: from tissue; host or cells: human blood plasma from healthy volunteers; conditions: test compound 10.8 μM, 24 h, 37° C.
Description: Human blood plasma (TTR conc. 3.6–5.4 μM) was incubated for 24 h with the test compound (10.8 μM) at 37° C. The TTR and any bound inhibitor were immunoprecipitated using a sepharose-bound polyclonal TTR antibody. The TTR with or without inhibitor bound was liberated from the resin at high pH, and the inhibitor:TTR stoichiometry was ascertained by HPLC analysis (FIG. 8).

WT TTR [10] = target: T5, WT TTR; assay: Transthyretin amyloid fibril formation assay (pH 4.4, 72 h, OD 400 nm), Example 4; assay type: biochemical; conditions: equimolar inhibitor and TTR concentration (3.6 μM)
Description: TTR secreted into blood from the liver appears to be the source of systemic TTR amyloid. While it is not yet clear where or how amyloid is formed in humans, the typical denaturant in cells is acid, which is effective in converting nearly all amyloidogenic peptides and proteins into amyloid and/or related aggregates. […] Hydroxylated PCBs and PCB 3 were highly efficacious as TTR fibril inhibitors. At an inhibitor concentration equal to the WT TTR concentration (3.6 μM), only 12–50% of the normal amount of fibril formation was observed after a 72 h incubation period.
The compounds were dissolved in DMSO at a concentration of 720 μM. Five μL of a solution of the compound being evaluated was added to 0.5 mL of a 7.2 μM TTR solution in 10 mM phosphate pH 7.6, 100 mM KCl, 1 mM EDTA buffer, allowing the compound to incubate with TTR for 30 min. 495 μL of […] acetate pH 4.2, 100 mM KCl, 1 mM EDTA was added, to yield final protein and inhibitor concentrations of 3.6 μM each and a pH of 4.4. The mixture was then incubated at 37° C. for 72 h, after which the tubes were vortexed for 3 sec and the optical density was measured at 400 nm. The extent of fibril formation was determined by normalizing each optical density by that of TTR without inhibitor, defined to be 100% fibril formation. Control solutions of each compound in the absence of TTR were also tested and none absorbed appreciably at 400 nm.

TTR tetramer = TTR tetramer (Homo sapiens, UniProt P02766); assay: Tetramer dissociation in 6 M urea, Example 4; assay type: biochemical
Description: In addition to their high binding selectivity to plasma TTR, the OH-PCBs and PCB 3 also display excellent inhibition of TTR fibril formation in vitro. […] This is likely attributable to their high binding affinity (also consistent with their low off rate) and their non- or positively cooperative TTR binding properties which are unusual. […] Ground state stabilization raises the tetramer dissociation barrier (rate limiting step in TTR amyloidogenesis) substantially, such that the tetramer cannot dissociate on a biologically relevant timescale. […] OH-PCB 18 (3.6 μM) is believed to be an impressive amyloid inhibitor because it is an excellent kinetic stabilizer of tetrameric TTR, i.e. it prevents ⅔ of a 3.6 μM TTR sample from being amyloidogenic at pH 4.4 because TTR•18 and TTR•182 are incompetent to form amyloid, the remainder of TTR (1.18 μM) forms amyloid very inefficiently because of its low concentration. The dissociation rates of the best OH-PCB inhibitors may also be slower than expected because of TTR structural annealing around the OH-PCB, but this has not yet been evaluated as carefully as required.

Compound: O=C(O)c1ccc2nc(-c3ccccc3)oc2c1 [Compound 21]
Equivalents Bound (Plasma) [1]: 1.40 ± 0.22
effect on dissociation of TTR [2]: did not hinder the dissociation of TTR at all
Equivalents Bound (Blood) (TTR in whole blood): 1.33

rate of acid mediated amyloid fibril formation (TTR [3]): dose dependent slowing
concentration at 4 h after the 13th dose (day 8) ([4]; 125 mg twice a day, 125 mg bid): 20.1 ± 7.1 µM
concentration at 12 h after the 13th dose (day 8) ([4]; 125 mg twice a day, 125 mg bid): 6.9 ± 3 µM
concentration at 4 h after the 13th dose (day 8) ([4]; 250 mg twice a day, 250 mg bid): 234 ± 76 µM
concentration at 12 h after the 13th dose (day 8) ([4]; 250 mg twice a day, 250 mg bid): 146 ± 38.9 µM
concentration at 4 h after the 13th dose (day 8) ([4]; 500 mg twice a day, 500 mg bid): 517 ± 79.5 µM
concentration at 12 h after the 13th dose (day 8) ([4]; 500 mg twice a day, 500 mg bid): 422 ± 78.1 µM
rate of urea-mediated dissociation (TTR [5]): dose dependent slowing
reduction of TTR amyloidogenesis (WT TTR [6]; 3.6 TM diflunisal): 63%
reduction of TTR amyloidogenesis (WT TTR [6]; 7.2 TM diflunisal): 97%
binding stoichiometry in subjects (TTR in human serum): 0.8–1
Compound: O=C(O)c1cc(-c2ccc(F)cc2F)ccc1O [diflunisal]
inhibition of V122I amyloidogenesis (V122I TTR): inhibits both V122I and V30M amyloidogenesis in a dose dependent fashion
level of BUN ([7]; 250 mg bid group): increased slightly
serum level of albumin ([7]; 250 mg bid group): decreased moderately
level of BUN ([7]; 500 mg bid group): increased slightly
level of creatinine ([7]; 500 mg bid group): increased slightly
serum level of albumin ([7]; 500 mg bid group): decreased significantly
side effects ([7]; 125, 250 or 500 mg bid for 7 days, during or after the study): No obvious side effects were observed
inhibition of V30M amyloidogenesis (V30M TTR): inhibits both V122I and V30M amyloidogenesis in a dose dependent fashion
stability of serum TTR against denaturation (serum TTR): stabilizes serum TTR against denaturation stresses
diflunisal concentration in blood ([8]; 4 h after a single 500 mg dose): > 300 µM
diflunisal concentration in blood ([8]; 20 h after a single 500 mg dose): exceed 30 μM
blood-brain barrier penetration ([8]; in vivo): cannot cross the blood-brain barrier
half-life ([8]; in vivo): 8 to 10 h
sustained plasma concentration ([8]; orally administered, 250 mg twice daily): exceeding 100 TM
protein bound ([8]; serum): Greater than 99%

Equivalents Bound (Plasma) [1]: 1.36 ± 0.21
efficacy as fibril inhibitor (WT TTR [10]): among the highest observed to date
Compound: 3′,5′-Difluorobiphenyl-4-carboxylic acid [Compound 18]
inhibitor:TTR binding stoichiometry in human blood plasma [9]: displayed the highest binding stoichiometries
tetramer dissociation in 6 M urea (TTR tetramer): dramatically slowed tetramer dissociation in 6 M urea
